Columns and labels:
HuM2e antibody 23K12 = format: binding, human
[1] = system: anti-M2 human monoclonal antibody Z3G1; format: binding

## 323 (SLCTEVGSLLTCV; epitope peptide) [compound 323]
HuM2e antibody 23K12
  Signal (peptides that bind to 23K21 and 8I10): 1781

## 489 (MSLLTECGMCLLTEV; epitope peptide) [compound 489]
HuM2e antibody 23K12
  Signal (peptides that bind to 23K21 and 8I10): 1111

## 367 (SLCTEVGSLLTEC; epitope peptide) [compound 367]
HuM2e antibody 23K12
  Signal (peptides that bind to 23K21 and 8I10): 1495

## 578 (SLLTERETPIRNEWGCRCNDSSD; epitope peptide) [compound 578]
HuM2e antibody 23K12
  Signal (peptides that bind to 23K21 and 8I10): 859

## 601 (SLLTECGSCLTEV; epitope peptide) [compound 601]
HuM2e antibody 23K12
  Signal (peptides that bind to 23K21 and 8I10): 830

## 472 (SLLTECGSLCTEV; epitope peptide) [compound 472]
HuM2e antibody 23K12
  Signal (peptides that bind to 23K21 and 8I10): 1218

## 295 (MSLCTEVGMSCLTEV; epitope peptide) [compound 295]
HuM2e antibody 23K12
  Signal (peptides that bind to 23K21 and 8I10): 2026

## 378 (SLLTECGSLLTEC; epitope peptide) [compound 378]
HuM2e antibody 23K12
  Signal (peptides that bind to 23K21 and 8I10): 1426

## 306 (CSLLTECGMSLLTCV; epitope peptide) [compound 306]
HuM2e antibody 23K12
  Signal (peptides that bind to 23K21 and 8I10): 1918

## 469 (MSLLTECGMSLLTEC; epitope peptide) [compound 469]
HuM2e antibody 23K12
  Signal (peptides that bind to 23K21 and 8I10): 1236

## 458 (CSLLTECGSCLTEV; epitope peptide) [compound 458]
HuM2e antibody 23K12
  Signal (peptides that bind to 23K21 and 8I10): 1278

## 574 (CLLTEVGSLLTEC; epitope peptide) [compound 574]
HuM2e antibody 23K12
  Signal (peptides that bind to 23K21 and 8I10): 866

## 487 (SLLTNVETPIRNEWGCRCNDSSD; epitope peptide) [compound 487]
HuM2e antibody 23K12
  Signal (peptides that bind to 23K21 and 8I10): 1142

## 361 (SCLCECGCSLLTEC; epitope peptide) [compound 361]
HuM2e antibody 23K12
  Signal (peptides that bind to 23K21 and 8I10): 1520

## 589 (CSLLTECGMSCLTEV; epitope peptide) [compound 589]
HuM2e antibody 23K12
  Signal (peptides that bind to 23K21 and 8I10): 846

## 475 (MSLLTECGMSLCTEV; epitope peptide) [compound 475]
HuM2e antibody 23K12
  Signal (peptides that bind to 23K21 and 8I10): 1212

## 308 (MSLCTEVGMCLCTCV; epitope peptide) [compound 308]
HuM2e antibody 23K12
  Signal (peptides that bind to 23K21 and 8I10): 1902

## 526 (MSLLTECGMSCLCEC; epitope peptide) [compound 526]
HuM2e antibody 23K12
  Signal (peptides that bind to 23K21 and 8I10): 992

## 494 (SLLTEQETPIRNEWGCRCNDSSD; epitope peptide) [compound 494]
HuM2e antibody 23K12
  Signal (peptides that bind to 23K21 and 8I10): 1102

## 369 (SLLTEAETPIRNEWGCRCNDSSD; epitope peptide) [compound 369]
HuM2e antibody 23K12
  Signal (peptides that bind to 23K21 and 8I10): 1481

## 530 (SLLTESETPIRNEWGCRCNDSSD; epitope peptide) [compound 530]
HuM2e antibody 23K12
  Signal (peptides that bind to 23K21 and 8I10): 974

## 474 (SLLTECETPIRNEWGCRCNDSSD; epitope peptide) [compound 474]
HuM2e antibody 23K12
  Signal (peptides that bind to 23K21 and 8I10): 1214

## 319 (SLLTECGSLLTCV; epitope peptide) [compound 319]
HuM2e antibody 23K12
  Signal (peptides that bind to 23K21 and 8I10): 1800

## 463 (CSLLTECGSLLTCV; epitope peptide) [compound 463]
HuM2e antibody 23K12
  Signal (peptides that bind to 23K21 and 8I10): 1258

## 355 (SCLCECGCSLLTEV; epitope peptide) [compound 355]
HuM2e antibody 23K12
  Signal (peptides that bind to 23K21 and 8I10): 1555

## 468 (SCLCECGSLLTEC; epitope peptide) [compound 468]
HuM2e antibody 23K12
  Signal (peptides that bind to 23K21 and 8I10): 1244

## 382 (CSLLTECGSLLTEV; epitope peptide) [compound 382]
HuM2e antibody 23K12
  Signal (peptides that bind to 23K21 and 8I10): 1393

## 548 (CSLLTECGSLCTEV; epitope peptide) [compound 548]
HuM2e antibody 23K12
  Signal (peptides that bind to 23K21 and 8I10): 917

## 455 (CLCTCVGSLLTEC; epitope peptide) [compound 455]
HuM2e antibody 23K12
  Signal (peptides that bind to 23K21 and 8I10): 1303

## 480 (SLLTECGCLCTCV; epitope peptide) [compound 480]
HuM2e antibody 23K12
  Signal (peptides that bind to 23K21 and 8I10): 1193

## 505 (SLLTEKETPIRNEWGCRCNDSSD; epitope peptide) [compound 505]
HuM2e antibody 23K12
  Signal (peptides that bind to 23K21 and 8I10): 1055

## 325 (SLLTECGSLLTEV; epitope peptide) [compound 325]
HuM2e antibody 23K12
  Signal (peptides that bind to 23K21 and 8I10): 1770

## 1272 (MSLHTEVETPIRNEWGCRCN; epitope peptide) [compound 1272]
[1]
  Signal (peptides that bind to Z3G1): 2058

## 1277 (MSLRTEVETPIRNEWGCRCN; epitope peptide) [compound 1277]
[1]
  Signal (peptides that bind to Z3G1): 2554

## 1442 (CLTEVETPIRLLTEVETPICLTEVETPIR; epitope peptide; MISC_FEATURE (1)..(1): C is an attachment site for a CLIP; MISC_FEATURE (10)..(10): R is an attachment site for a CLIP; MISC_FEATURE (11)..(11): L is an attachment site for a CLIP; MISC_FEATURE (29)..(29): R is an attachment site for a CLIP) [compound 1442]
[1]
  Signal (peptides that bind to Z3G1): 2057

## 1349 (MSLLCEVGCSCLCEV; epitope peptide) [compound 1349]
[1]
  Signal (peptides that bind to Z3G1): 2586

## 1268 (MSMLTEVETPIRNEWGCRCN; epitope peptide) [compound 1268]
[1]
  Signal (peptides that bind to Z3G1): 1329

## 1387 (SLLCEVETPIRNEWC; epitope peptide) [compound 1387]
[1]
  Signal (peptides that bind to Z3G1): 2406

## 1251 (MDLLTEVETPIRNEWGCRCN; epitope peptide) [compound 1251]
[1]
  Signal (peptides that bind to Z3G1): 2726

## MSLLTEVETPIRNEWGCRCN (epitope peptide) [SEQ ID NO: 1149]
[1]
  Binding to Z3G1 (in words): very best specific binder

## 1325 (MSLLCEVETPIRNC; epitope peptide) [compound 1325]
[1]
  Signal (peptides that bind to Z3G1): 2823

## 1494 (CLTEVETPIRLLTEVETPICVETPIRNEW; epitope peptide; MISC_FEATURE (1)..(1): C is an attachment site for a CLIP; MISC_FEATURE (10)..(10): R is an attachment site for a CLIP; MISC_FEATURE (11)..(11): L is an attachment site for a CLIP; MISC_FEATURE (29)..(29): W is an attachment site for a CLIP) [compound 1494]
[1]
  Signal (peptides that bind to Z3G1): 2443

## 1326 (MSLLCEVETPIRCE; epitope peptide) [compound 1326]
[1]
  Signal (peptides that bind to Z3G1): 2772

## 1399 (SLLTEVETPIRNECG; epitope peptide) [compound 1399]
[1]
  Signal (peptides that bind to Z3G1): 1545

## 1398 (SLLTEVETPIRNECC; epitope peptide) [compound 1398]
[1]
  Signal (peptides that bind to Z3G1): 1493

## 1558 (SCLCECGSLLCEV; epitope peptide) [compound 1558]
[1]
  Signal (peptides that show specific binding to Z3G1): 1747

## 1287 (MSLLLEVETPIRNEWGCRCN; epitope peptide) [compound 1287]
[1]
  Signal (peptides that bind to Z3G1): 2804

## 1304 (MSLLTEVITPIRNEWGCRCN; epitope peptide) [compound 1304]
[1]
  Signal (peptides that bind to Z3G1): 2668

## 1358 (CLLTEVECPIRNE; epitope peptide) [compound 1358]
[1]
  Signal (peptides that bind to Z3G1): 2326

## 1511 (CLTEVETPIRLLTEVETPICETPIRNEWG; epitope peptide; MISC_FEATURE (1)..(1): C is an attachment site for a CLIP; MISC_FEATURE (10)..(10): R is an attachment site for a CLIP; MISC_FEATURE (11)..(11): L is an attachment site for a CLIP; MISC_FEATURE (29)..(29): G is an attachment site for a CLIP) [compound 1511]
[1]
  Signal (peptides that show specific binding to Z3G1): 2175

## 1591 (SLLYEVETPIRNEWGCRCNDSSD; epitope peptide) [compound 1591]
[1]
  Signal (peptides that show specific binding to Z3G1): 2181

## 1258 (MLLLTEVETPIRNEWGCRCN; epitope peptide) [compound 1258]
[1]
  Signal (peptides that bind to Z3G1): 2091

## 1320 (MCLLTEVETPCRNE; epitope peptide) [compound 1320]
[1]
  Signal (peptides that bind to Z3G1): 2404

## 634 (SLLTEVETPIRNEWGCRANDSSD; epitope peptide) [compound 634]
[1]
  Signal (peptides that show specific binding to Z3G1): 2265

## 1363 (SLLCEVETPICNE; epitope peptide) [compound 1363]
[1]
  Signal (peptides that bind to Z3G1): 1921

## 1267 (MSILTEVETPIRNEWGCRCN; epitope peptide) [compound 1267]
[1]
  Signal (peptides that bind to Z3G1): 2582

## 1365 (SLLCEVETCIRNE; epitope peptide) [compound 1365]
[1]
  Signal (peptides that bind to Z3G1): 2305

## 1388 (SLLCEVETPIRNECG; epitope peptide) [compound 1388]
[1]
  Signal (peptides that bind to Z3G1): 2107

## 1498 (CETPIRNEWGLLTEVETPICVETPIRNEW; epitope peptide; MISC_FEATURE (1)..(1): C is an attachment site for a CLIP; MISC_FEATURE (10)..(10): G is an attachment site for a CLIP; MISC_FEATURE (11)..(11): L is an attachment site for a CLIP; MISC_FEATURE (29)..(29): W is an attachment site for a CLIP) [compound 1498]
[1]
  Signal (peptides that bind to Z3G1): 1817

## 1569 (KLLTEVETPIRNEWGCRCNDSSD; epitope peptide) [compound 1569]
[1]
  Signal (peptides that show specific binding to Z3G1): 1826

## 1321 (MCLLTEVETCIRNE; epitope peptide) [compound 1321]
[1]
  Signal (peptides that bind to Z3G1): 1948

## 1386 (SLCCEVETPIRNEWG; epitope peptide) [compound 1386]
[1]
  Signal (peptides that bind to Z3G1): 1603

## 1322 (MCLLTEVECPIRNE; epitope peptide) [compound 1322]
[1]
  Signal (peptides that bind to Z3G1): 2421

## 1278 (MSLYTEVETPIRNEWGCRCN; epitope peptide) [compound 1278]
[1]
  Signal (peptides that bind to Z3G1): 1313

## 1292 (MSLLREVETPIRNEWGCRCN; epitope peptide) [compound 1292]
[1]
  Signal (peptides that bind to Z3G1): 2699

## 1550 (SLLCEVGCLLTEV; epitope peptide) [compound 1550]
[1]
  Signal (peptides that show specific binding to Z3G1): 1997

## 1559 (SLLCEVGSLLTCV; epitope peptide) [compound 1559]
[1]
  Signal (peptides that show specific binding to Z3G1): 1972

## 1331 (MSLLCEVCTPIRNE; epitope peptide) [compound 1331]
[1]
  Signal (peptides that bind to Z3G1): 2601

Reference: patent publication US8932597B2 (priority 2008, dated 2015)
